Data taken from patent US8163909B2, “Substituted hydroxyethyl amine compounds as beta-secretase modulators and methods of use” (Amgen Inc., priority 2007, dated 2012).
Like-named read-outs stand apart in the source and are kept apart here.

Assays:
[1] = tested on: Aβ40 in conditioned medium of cells stably expressing Amyloid Precursor Protein (APP); experiment: In vitro BACE cell-based assay (Aβ40 in conditioned medium, sandwich ELISA); conditions: Homo sapiens;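 further: compounds added as a dilution series, secreted peptide quantified by europium time-resolved fluorescence readout, potency fitted from percent of control versus compound concentration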
[2] = biological target: Beta Secretase enzyme (BACE) (Homo sapiens, UniProt P56817); experiment: In vitro enzymatic BACE FRET (fluorescence resonance energy transfer) assay; format: biochemical;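 further: fluorescence read after 1 h with 50 nM quenched peptide substrate spanning the BACE cleavage site, in pH 4.2 acetate buffer containing 10% DMSO and nonionic detergent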
[3] = HEK293, HEK cells, cell-based assay, read-out: HEK cell assay (IC50)
[4] = BACE enzyme assay, read-out: BACE1 FRET assay (IC50)
[5] = HEK293, Table 1, HEK cells, read-out: HEK cell assay
[6] = Table 1, read-out: BACE1 FRET assay
[7] = BACE enzyme FRET assay, read-out: BACE1 FRET assay (IC50)
[8] = HEK293, cell-based assay, HEK cells, IC50's in uM, read-out: HEK cell assay
[9] = BACE enzyme assay, IC50's in uM, read-out: BACE1 FRET assay

Sequence of Beta Secretase enzyme (BACE) (P56817 46-501): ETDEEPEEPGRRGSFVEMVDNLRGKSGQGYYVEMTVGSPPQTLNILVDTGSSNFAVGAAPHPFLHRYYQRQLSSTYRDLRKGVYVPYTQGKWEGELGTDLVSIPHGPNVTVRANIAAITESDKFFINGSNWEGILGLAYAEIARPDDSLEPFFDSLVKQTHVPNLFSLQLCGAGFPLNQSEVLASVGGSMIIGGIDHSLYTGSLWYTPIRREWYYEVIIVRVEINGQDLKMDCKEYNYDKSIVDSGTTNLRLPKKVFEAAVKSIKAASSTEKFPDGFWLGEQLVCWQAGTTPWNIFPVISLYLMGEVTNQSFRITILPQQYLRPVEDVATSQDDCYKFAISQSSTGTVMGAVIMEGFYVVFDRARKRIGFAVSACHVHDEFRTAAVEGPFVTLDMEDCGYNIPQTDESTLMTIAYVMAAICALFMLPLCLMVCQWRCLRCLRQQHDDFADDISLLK

Row | IC50 [1, 3] [µM] | IC50 [2, 7] [µM] | SMILES | other results
1 | 0.00985 | – | COCC(=O)N[C@@H](Cc1ccnc(OCC(F)(F)F)c1)[C@H](O)CN[C@H]1CC2(CCC2)Oc2ncc(CC(C)(C)C)cc21 [compound 166] | IC50 [2, 4]: 0.0108 µM
2 | – | – | CO[C@H](C)C(=O)N[C@@H](Cc1cccc(C#N)c1)[C@H](O)CN[C@H]1CC2(CCC2)Oc2ncc(CC(F)(F)F)cc21 [compound 345] | IC50 [1, 5]: 0.0609 µM; IC50 [2, 6]: 0.0266 µM
3 | 1.16 | 23.9 | COCC(=O)NC(Cc1ccc2c(c1)OCO2)C(O)CNC1CC2(CC(O)C2)Oc2cnccc21 [compound 242, N-((1S,2R)-1-(1,3-benzodioxol-5-ylmethyl)-2-hydroxy-3-(((1s,3S,4′S)-3-hydroxy-3′,4′-dihydrospiro[cyclobutane-1,2′-pyrano[2,3-c]pyridin]-4′-yl)amino)propyl)-2-(methyloxy)acetamide] | –
4 | 0.0549 | 0.0231 | COCC(=O)N[C@@H](Cc1ccc2c(c1)OCO2)[C@H](O)CN[C@H]1CC2(CCC2)Oc2ccc(CC(C)(C)C)cc21 [compound 290] | –
5 | – | – | CO[C@H](C)C(=O)N[C@@H](Cc1ccc(F)cc1)[C@H](O)CN[C@H]1CC2(CCC2)Oc2c(-c3ccncc3)cc(CC(C)(C)F)cc21 [compound 577] | IC50 ([1]; HEK293, HEK cells, read-out: HEK cell assay (IC50)): 0.057 µM; IC50 ([2]; read-out: BACE1 FRET assay (IC50)): 0.115 µM
6 | 1.25 | 7.47 | COCC(=O)N[C@@H](Cc1ccc2c(c1)OCO2)[C@H](O)CN[C@H]1CC2(CCC2)Oc2cnc(C(F)(F)F)cc21 [compound 266] | –
7 | – | – | CO[C@H](C)C(=O)N[C@@H](Cc1cccc(F)c1)[C@H](O)CN[C@H]1CC2(CCC2)Oc2ncc(CC(C)(C)C)cc21 [compound 360] | IC50 [1, 5]: 0.00482 µM; IC50 [2, 6]: 0.00311 µM
8 | 0.0336 | 0.00628 | COC(C)C(=O)NC(Cc1ccc2c(c1)OCO2)C(O)CNC1CC2(CC(F)C2)Oc2ncc(CC(C)(C)C)cc21 [compound 241, (2R)—N-((1S,2R)-1-(1,3-benzodioxol-5-ylmethyl)-3-(((1s,3S,4′S)-6′-(2,2-dimethylpropyl)-3-fluoro-3′,4′-dihydrospiro[cyclobutane-1,2′-pyrano[2,3-b]pyridin]-4′-yl)amino)-2-hydroxypropyl)-2-(methyloxy)propanamide] | –
9 | 0.0164 | 0.0135 | COCC(=O)NC(Cc1ccc2c(c1)OCO2)C(O)CNC1CC2(CC(O)C2)Oc2ncc(CC(C)C)cc21 [compound 246, N-((1S,2R)-1-(1,3-benzodioxol-5-ylmethyl)-2-hydroxy-3-(((1s,3S,4′S)-3-hydroxy-6′-(2-methylpropyl)-3′,4′-dihydrospiro[cyclobutane-1,2′-pyrano[2,3-b]pyridin]-4′-yl)amino)propyl)-2-(methyloxy)acetamide] | –
10 | 0.0135 | 0.00404 | COCC(=O)NC(Cc1ccc(Cl)cc1)C(O)CNC1CC2(CC(O)C2)Oc2ncc(CC(C)(C)C)cc21 [compound 234, N-((1S,2R)-1-((4-chlorophenyl)methyl)-3-(((1s,3S,4′S)-6′-(2,2-dimethylpropyl)-3-hydroxy-3′,4′-dihydrospiro[cyclobutane-1,2′-pyrano[2,3-b]pyridin]-4′-yl)amino)-2-hydroxypropyl)-2-(methyloxy)acetamide] | –
11 | 0.224 | 0.163 | CO[C@H](C)C(=O)N[C@@H](Cc1cc(Br)c2c(c1)OCO2)[C@H](O)CN[C@H]1CC2(CCC2)Oc2ncc(CC(C)(C)C)cc21 [compound 210, (2R)—N-((1S,2R)-1-((7-bromo-1,3-benzodioxol-5-yl)methyl)-3-(((4′S)-6′-(2,2-dimethylpropyl)-3′,4′-dihydrospiro[cyclobutane-1,2′-pyrano[2,3-b]pyridin]-4′-yl)amino)-2-hydroxypropyl)-2-(methyloxy)propanamide] | –
12 | 0.333 | 0.484 | COCC(=O)N[C@@H](Cc1ccc2c(c1)OC(C)(C)O2)[C@H](O)CN[C@H]1CC2(CCC2)Oc2ncc(CC(C)(C)C)cc21 [compound 293] | –
13 | 0.0205 | – | CC(=O)N[C@@H](Cc1ccc(F)cc1)[C@H](O)CN[C@H]1CC2(CCC2)Cc2ncc(CC(C)(C)C)cc21 [compound 164] | IC50 [2, 4]: 0.0623 µM
14 | – | – | CC(C)C(=O)N[C@@H](Cc1ccc2c(c1)OCO2)[C@H](O)CN[C@H]1CC2(CCC2)Oc2ncc(CC(C)(C)C)cc21 [compound 881] | IC50 [1, 8]: 0.813 µM; IC50 [2, 9]: 0.144 µM
15 | 0.0219 | 0.0209 | COCCC(=O)N[C@@H](Cc1ccc2c(c1)OCO2)[C@H](O)CN[C@H]1CC2(CCC2)Oc2ncc(CC(C)(C)C)cc21 [compound 197] | –
16 | 0.0949 | – | CO[C@H](C)C(=O)N[C@@H](Cc1cccc(F)c1)[C@H](O)CN[C@H]1CC2(CCC2)Oc2ncc(CC(C)(C)C(F)(F)F)cc21 [compound 74] | IC50 [2, 4]: 0.0305 µM
17 | – | – | CO[C@H](C)C(=O)N[C@@H](Cc1ccc2c(c1)OCO2)[C@H](O)CN[C@H]1CC2(CCC2)Oc2ncc(CC(C)C)cc21 [compound 335] | IC50 [1, 5]: 0.0765 µM; IC50 [2, 6]: 0.0383 µM
18 | 0.00899 | – | CNc1nc(CC(C)(C)C)cc2c1OC1(CCC1)C[C@@H]2NC[C@@H](O)[C@H](Cc1cccc(F)c1)NC(=O)[C@@H](C)OC [compound 139] | IC50 [2, 4]: 0.042 µM
19 | – | – | CC(=O)N[C@@H](Cc1ccccc1)[C@H](O)CN[C@H]1CC2(CCC2)Oc2ncc(C[C@@H](C)C(F)(F)F)cc21 [compound 317] | IC50 [1, 5]: 0.0278 µM; IC50 [2, 6]: 0.0197 µM
20 | – | – | C#Cc1cc(C[C@H](NC(=O)COC)[C@H](O)CN[C@H]2CC3(CCC3)Oc3ncc(CC(C)(C)C)cc32)cc(-c2nccs2)c1 [compound 889] | IC50 [1, 8]: 0.989 µM; IC50 [2, 9]: 0.653 µM
21 | 0.0298 | 0.00969 | CC(=O)N[C@@H](Cc1ccnc(OCC(F)F)c1)[C@H](O)CN[C@H]1CC2(CCC2)Oc2c(F)cc(CC(C)(C)C)cc21 [compound 223] | –
22 | – | – | CC(=O)N[C@@H](Cc1cccc(F)c1)[C@H](O)CN[C@H]1CC2(CCC2)Oc2ncc([C@H](F)[C@H](C)C(F)(F)F)cc21 [compound 322] | IC50 [1, 5]: 0.0399 µM; IC50 [2, 6]: 0.0109 µM
23 | – | – | CO[C@H](C)C(=O)N[C@@H](Cc1ccc2c(c1)OCO2)[C@H](O)CN[C@H]1CC2(CCC2)Oc2ncc([C@H](F)C(C)(C)C)cc21 [compound 330] | IC50 [1, 5]: 0.0439 µM; IC50 [2, 6]: 0.0221 µM
24 | 0.014 | – | COCC(=O)N[C@@H](Cc1ccc(F)c(OC(F)(F)F)c1)[C@H](O)CN[C@H]1CC2(CCC2)Oc2ncc(CC(C)(C)C)cc21 [compound 81] | IC50 [2, 4]: 0.00251 µM
25 | – | – | CO[C@@H](C)C(=O)N[C@@H](Cc1ccc2c(c1)OCO2)[C@H](O)CN[C@H]1CC2(CCC2)Oc2ncc([C@H](F)C(C)(C)C)cc21 [compound 331] | IC50 [1, 5]: 0.0446 µM; IC50 [2, 6]: 0.0515 µM
26 | – | – | CC(=O)N[C@@H](Cc1ccccc1)[C@H](O)CN[C@H]1CC2(CCC2)Oc2ncc(C[C@H](C)C(F)(F)F)cc21 [compound 316] | IC50 [1, 5]: 0.0497 µM; IC50 [2, 6]: 0.0136 µM
27 | 0.0738 | 0.057 | COCC(=O)N[C@@H](Cc1ccc2c(c1)OCO2)[C@H](O)CN[C@H]1CC2(CCC2)Oc2ncc(CC(C)(C)F)cc21 [compound 285] | –
28 | 0.0535 | – | CC(=O)N[C@@H](Cc1ccc2c(c1)OCO2)[C@H](O)CN[C@H]1CC2(CCC2)Oc2c(F)cc(CC(C)(C)C)cc21 [compound 170] | IC50 [2, 4]: 0.0125 µM
29 | 0.0163 | – | CNc1nc(CC(C)(C)C)cc2c1OC1(CCC1)C[C@@H]2NC[C@@H](O)[C@H](Cc1ccc2c(c1)OCO2)NC(=O)[C@@H](C)OC [compound 136] | IC50 [2, 4]: 0.0411 µM
30 | 0.0108 | – | COCC(=O)N[C@@H](Cc1ccc(F)cc1)[C@H](O)CN[C@H]1CC2(CCC2)Oc2ncc(CC(C)(C)C(F)(F)F)cc21 [compound 76] | IC50 [2, 4]: 0.00368 µM
